Reference: the OligoGym collection
Where “and” joins values, the source holds several entries; their conditions need not be identical. Equal values may be shown once. After the bases stand the sugars from the 5' end (letter, count) and the backbone: PS all phosphorothioate, else s phosphorothioate and o phosphodiester by linkage. Methylation of C is not given here. e = 2'-O-(2-methoxyethyl) (MOE); k = constrained ethyl (cEt); d = 2'-deoxy (DNA)

Molecular target: KRAS
Settings: ASO

Sequence | target mRNA inhibition (A431, 2 µM) | also measured
AAAGTTCACATAAAGG (sugars k3 d10 k3, PS) | 38% | 
GCATTGCTAGTTCAAA (sugars k3 d10 k3, PS) | 46% | 
AGGAGTCTTTATAGTA (sugars kkdddddddddkekek, PS) | 31% | 
GTCCAGTGATACTTTC (sugars kkdddddddddkekek, PS) | 43% | 
TTGATTTGTCAGCAGG (sugars k3 d9 k3 e1, PS) | 55% and 30% | 
TCCATTTATGTGACTA (sugars kkddddddddkekekk, PS) | 29% | 
AAATTGTGCAATGGTG (sugars k3 d10 k3, PS) | 48% | 
TAAAAAAAAAATTAAT (sugars k3 d10 k3, PS) | 1% | 
CAGTGTTAAGAGAACT (sugars kkddddddddkekekk, PS) | 35% | 
CATTTATGTGACTAGA (sugars kddddddddddkekek, PS) | 24% | 
CTTGATTTGTCAGCAG (sugars kkddddddddkekekk, PS) | 33% | target mRNA inhibition (A431, 0.037 µM): 55%
CCATTTATGTGACTAG (sugars kkddddddddddkeke, PS) | 46% | 
TTGATTTGTCAGCAGG (sugars kkkddddddddkekek, PS) | 37% and 12% | 
TATTAGGAGTCTTTAT (sugars k3 d10 k3, PS) | 13% | 
TTGATTTGTCAGCAGG (sugars kkkdddddddddkeke, PS) | 40% | 
ACCATTCAAAGTTCAC (sugars kdddddddddkekeke, PS) | 15% | 
CCATTCAAAGTTCACA (sugars kkddddddddkekekk, PS) | 57% | target mRNA inhibition (A431, 0.185 µM): 0%; target mRNA inhibition (A431, 0.556 µM): 19%; target mRNA inhibition (A431, 1.667 µM): 31%; target mRNA inhibition (A431, 5 µM): 39%
TCCAGTGATACTTTCA (sugars k3 d9 k3 e1, PS) | 47% | 
TGTTGAGCTATCCAAA (sugars k3 d10 k3, PS) | 37% | 

Sequence | target mRNA inhibition (A431, 2 µM) | also measured
CTTGATTTGTCAGCAG (sugars kkddddddddddkeke, PS) | 54% | 
TTGATTTGTCAGCAGG (sugars kdddddddddkekeke, PS) | 22% | 
CAGTGTGACTCAGTTA (sugars k3 d10 k3, PS) | 53% | 
TGATTTGTCAGCAGGA (sugars kkdddddddddkekek, PS) | 45% | 
ACCAGTGTTAAGAGAA (sugars kkkddddddddkdkdk, PS) | 50% | 
CATTGTTTAAAAAAAA (sugars k3 d10 k3, PS) | 0% | 
TGTACTAGTATGCCTT (sugars k3 d10 k3, PS) | 66% | target mRNA inhibition (A431, 0.185 µM): 18% and 9%; target mRNA inhibition (A431, 1.667 µM): 61% and 43%; target mRNA inhibition (A431, 5 µM): 74% and 64%
TAGTGATTAGGTCAAA (sugars k3 d10 k3, PS) | 21% | 
TCATTACTTTTTGACA (sugars k3 d10 k3, PS) | 4% | 
ACCATTCAAAGTTCAC (sugars kkddddddddkekekk, PS) | 7% | 
AAATCTTATGGTTAGG (sugars k3 d10 k3, PS) | 34% | 
TTGTTTAAAAAAAAAA (sugars k3 d10 k3, PS) | 0% | 
ACCATTCAAAGTTCAC (sugars k3 d10 k3, PS) | 34% | 
TGTAGGGCATTTCTGA (sugars k3 d10 k3, PS) | 0% | 
TGGTGTAACATAGGTT (sugars kkddddddddkekekk, PS) | 55% | target mRNA inhibition (A431, 0.185 µM): 11%; target mRNA inhibition (A431, 0.556 µM): 33%; target mRNA inhibition (A431, 1.667 µM): 58%; target mRNA inhibition (A431, 5 µM): 68%
TTGATTTGTCAGCAGG (sugars kkkddddddddkdkdk, PS) | 19% | 
CTGAATTAGTCTCCAT (sugars k3 d10 k3, PS) | 48% | 
TACTTTTTGACAAATG (sugars k3 d10 k3, PS) | 37% | 
AGTGATTAGGTCAAAT (sugars kdddddddddkekeke, PS) | 12% | 
